The target of one data set is T1, WNV NS2B-NS3 protease (West Nile virus, UniProt P06935).
T1 construct: some activity against the WNV NS2B-NS3 protease
Nature of the data set: WNV NS2B-NS3 protease biochemical inhibition.

Data set [1] is described as follows: Microsomal clearance, HLM. The conditions noted are these: human, microsomes.
Data set [2] is described as follows: Murine in vivo pharmacokinetics and tolerability. On the set-up: species or system mice. The conditions noted are these: mouse. From the text:
Figure 8. […] (B) ASAP-0036543 was assigned the (S) configuration by crystallography and the compound assumed a similar binding mode to that observed with ASAP-0029000. (C) Murine in vivo pharmacokinetics for ASAP-0036543. […] TEXT PRINTED IN THE PICTURE: (A) ASAP-0036543: ZIKV Ki (μM): 0.0029; ZIKV EC50 / EC90 / CC50 (μM, SH-SY5Y cells): 0.48 / 0.75 / 38; ZIKV EC50 / EC90 / CC50 (μM, Vero cells + pgpi): 0.38 / 0.98 / >50; WNV Ki (μM): 0.058; WNV EC50 / CC50 (μM, Vero cells + Pgpi): 1.0 / >50; %F (150, 300, 600 mpk): 96 / 153 / 223; Vd,ss (L/kg): 7.9; CLp (mL/min/kg): 87; CLint,app, HLM, MLM (μL/min/mg): < 10, <10; MDR1-MDCK Papp A→B, B→A (10^-6 cm/sec): 1.2, 16; KSol (pH 7.4, μM): 389; LogD: 1.0
The compound had high kinetic solubility, low microsomal clearance, and acceptable permeability in an MDR1-MDCK cell line. Respectable antiviral potency against WNV in Vero cells was also noted, which had been hitherto difficult to achieve with the chemotype. […] ASAP-0036543 was then advanced to murine pharmacokinetic studies to assess its potential as an in vivo tool compound.[31]

A short description of another data set: Kinetic solubility. The conditions noted are these: pH 7.4.
In data set [3] the test system is ZIKV. The data set can be described thus: ZIKV antiviral assay (virus-induced cytopathy) in Vero E6 cells with P-gp inhibitor. The format is cell-based. The note with it: Zika virus. The method, then:
(§1) Figure 5. (A) Further characterization of ASAP-0027808. Papp was determined in MDR1-MDCK cells. Antiviral assays were performed in Vero E6 cells in a 7-day infection using 0.5 uM CP100356 as a P-gp inhibitor (see Supporting Information for more details). (B) The compound was successfully crystallized with ZIKV NS2B-NS3. ASAP-0016806 and ASAP-0027808 both appear to interact with the same residues (catalytic triad His51/Asp75/Ser135 colored yellow, other key residues Tyr161, NS2B Ser81, and NS2B Asp83 colored green). (C) Dose-dependent suppression of ZIKV-induced cytopathy in VeroE6 cells (n=2); no changes to cell viability of uninfected cells treated with the inhibitor was observed. Cells were co-treated with 0.5 μM CP100356 (as P-gp inhibitor). TEXT PRINTED IN THE PICTURE: (A) ASAP-0027808: ZIKV NS2B-NS3 Ki (μM): 0.090; ZIKV EC50 / CC50 (μM): 4.6 / >50; WNV NS2B-NS3 Ki (μM): 2.9; MW (g/mol): 313; CLint,app, HLM (μL/min/mg): < 10; MDR1-MDCK Papp A→B, B→A (10^-6 cm/sec): 2.0 ,11.0; Kinetic solubility (pH 7.4, μM): 279; LogD: 0.9

The nature of data set [4]: Cytotoxicity in SH-SY5Y cells. The conditions noted are these: human.
Data set [5] has as its system ZIKV. Nature of the data set: ZIKV antiviral assay in SH-SY5Y cells. The format is cell-based. The conditions noted are these: Zika virus.
The next data set can be described thus: MDR1-MDCK permeability. It counts as in vitro ADME. The note with it: dog. The method, then: as §1
The next data set has as its target T2, ZIKV NS2B-NS3 protease (Zika virus, UniProt A0A024B7W1).
T2 construct: directed at the co-expressed ZIKV NS2B-NS3 protease
The data set can be described thus: ZIKV NS2B-NS3 protease biochemical FRET assay. The note with it: ZIKV NS2B-NS3 Ki.

For the next data set, the system named is WNV. The data set can be described thus: WNV antiviral assay in Vero cells with P-gp inhibitor. It counts as cell-based. The note with it: West Nile virus, read-out: WNV EC50 (Vero cells + Pgpi).
A short description of data set [6]: Microsomal clearance, MLM. The conditions noted are these: mouse, microsomes.
The nature of data set [7]: Cytotoxicity in uninfected Vero E6 cells. The format is cell-based. The note with it: African green monkey; Vero cells + Pgpi, printed with WNV EC50; read-out: CC50 (WNV assay, Vero cells + Pgpi). The method, then:
as §1

A further data set concerns Vero E6 cells. The data set can be described thus: Cytotoxicity in uninfected Vero E6 cells. It counts as cell-based. The conditions noted are these: Vero E6 cells, 0.5 uM CP100356 as P-gp inhibitor. The method, then: as §1

Converted amounts (≈) assume the structure as drawn. Like-named read-outs stand apart in the source and are kept apart here.

T2 sequence (A0A024B7W1 1503-1680): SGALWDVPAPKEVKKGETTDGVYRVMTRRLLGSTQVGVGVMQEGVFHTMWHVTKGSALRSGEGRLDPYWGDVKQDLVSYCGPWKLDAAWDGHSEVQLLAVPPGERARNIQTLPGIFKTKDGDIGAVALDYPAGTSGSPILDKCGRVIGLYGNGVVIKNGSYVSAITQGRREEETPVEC
T2 sequence (A0A024B7W1 1425-1464): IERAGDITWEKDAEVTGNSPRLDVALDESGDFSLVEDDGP
T1 sequence (P06935 1424-1463): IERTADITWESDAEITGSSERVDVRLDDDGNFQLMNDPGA
T1 sequence (P06935 1502-1679): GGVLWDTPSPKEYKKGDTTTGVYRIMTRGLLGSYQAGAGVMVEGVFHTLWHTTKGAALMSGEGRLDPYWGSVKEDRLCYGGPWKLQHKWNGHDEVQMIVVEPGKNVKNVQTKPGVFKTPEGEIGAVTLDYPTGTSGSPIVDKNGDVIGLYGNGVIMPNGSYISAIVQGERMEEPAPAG

For orientation: Ki means a dissociation constant, usually derived from enzyme kinetics or from competition with a known ligand. The low end stands for higher affinity, the high end for lower affinity. The term microsomal CLint denotes a measure of how fast metabolising enzymes remove a compound, apart from limits set by blood flow. Low values mean greater metabolic stability, high ones faster metabolism. What is called logD is lipophilicity at a set pH, counting ionised and neutral species. Usually Vd stands for a proportionality between amount in the body and measured concentration, not a real space. The term solubility (kinetic) denotes the concentration staying in solution when a stock, usually in DMSO, is diluted into the medium. By EC50 is commonly meant the concentration that produces a half-maximal response. For orientation: EC90 means the point of the concentration-response curve where the effect stands at 90%. Broadly, the CC50 is the concentration that lowers cell viability or growth by half. A word on the Papp A→B: it is how fast a substance crosses the layer from the apical side. Read a high Papp A→B as fast passage. As a reminder, the Papp B→A is how fast a substance crosses the layer from the basolateral side. Take `Cc1cc([C@H](Nc2ccc3c(c2)CNC3)C(=O)NCC(F)F)cc(C(F)(F)F)c1` [ASAP-0036543]: the values for the Ki on WNV NS2B-NS3 protease and on ZIKV NS2B-NS3 protease were 58 nM and 2.9 nM, respectively. Moreover, the microsomal CLint in data set [1] and in data set [6] was below 10 µL/min/mg throughout. In “LogD”, the logD is 1. In addition, the bioavailability in data set [2] (in vivo, 150 mg/kg, PO 150 mpk, read-out: %F) worked out at 96%; in data set [2] (in vivo, 300 mg/kg, PO 300 mpk, read-out: %F) it was 153%; in data set [2] (in vivo, 600 mg/kg, PO 600 mpk, read-out: %F (oral bioavailability)), 223%. Besides, the clearance in data set [2] (in vivo, read-out: CLp) was 87 mL/min/kg. Besides, the Vd in data set [2] (in vivo, read-out: Vd,ss) was 7.9 L/kg. Also, in [2] (single PO doses of 150, 300 and 600 mg/kg), the tolerability entry is listed as “well-tolerated”. The kinetic solubility in the data set “Kinetic solubility” turned out to be 389 µM (≈ 161 µg/mL). Also, the EC50 with ZIKV [3] (Vero C1008, 168 h, read-out: ZIKV EC50) was 380 nM; in the data set on ZIKV [5] (read-out: ZIKV EC50 (SH-SY5Y cells)) it was 480 nM; in the data set on WNV, 1000 nM. Further, the 90% effect concentration (EC90) turned out to be 980 nM in the data set with ZIKV [3] (Vero, read-out: ZIKV EC90 (Vero cells + pgpi)) and 750 nM in the data set on ZIKV [5] (read-out: ZIKV EC90 (SH-SY5Y cells)). For the same compound, the CC50 is 38 µM in [4], above 50 µM in data set [7] and above 50 µM in the data set with Vero E6 cells. The Papp A→B in “MDR1-MDCK permeability” (MDCK-MDR1, A→B) was 1.2 ×10⁻⁶ cm/s. Also, the Papp B→A in the data set “MDR1-MDCK permeability” (MDCK-MDR1, B→A) came out at 16 ×10⁻⁶ cm/s.

The values above are taken from publication doi:10.1101/2025.06.19.660642, “Discovery of orally bioavailable Zika and West Nile Virus antiviral compounds targeting the NS2B-NS3 protease” (bioRxiv, 2025).
